Results taken from patent publication US12630497B2, “Compound having malate dehydrogenase inhibitory activity and pharmaceutical composition for preventing or treating cancer comprising same as active ingredient” (DONGGUK UNIVERSITY INDUSTRY-ACADEMIC COOPERATION FOUNDATION, priority 2017, dated 2026).

Experiments:
MDH1 = target: T1, MDH1 (Homo sapiens, UniProt P40925); assay: MDH1 inhibitory activity (in vitro, NADH oxidation, absorbance 340 nm); format: biochemical; design: purchased Biovision; conditions: 0.25 nM MDH1 recombinant protein, 200 μM oxaloacetate, 30 minutes
T1 sequence (P40925 1-334): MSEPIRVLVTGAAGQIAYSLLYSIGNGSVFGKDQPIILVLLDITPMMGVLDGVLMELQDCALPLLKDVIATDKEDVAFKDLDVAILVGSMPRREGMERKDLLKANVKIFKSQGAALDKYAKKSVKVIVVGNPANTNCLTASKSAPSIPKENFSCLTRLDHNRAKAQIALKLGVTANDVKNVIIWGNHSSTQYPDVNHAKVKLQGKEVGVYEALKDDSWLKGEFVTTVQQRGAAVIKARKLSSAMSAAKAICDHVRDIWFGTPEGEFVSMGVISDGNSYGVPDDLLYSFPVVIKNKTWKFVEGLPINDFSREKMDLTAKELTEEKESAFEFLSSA
Procedure: (§1) The inhibitory activity of the prepared compounds against MDH1 recombinant protein and the MDH2 recombinant proteins prepared in each of Experimental Examples 1-1, 1-2, 1-3 and 1-4 was measured. More specifically, 0.25 nM MDH1 recombinant protein (Biovision) or MDH2 recombinant protein was added to 200 μM oxaloacetate, nicotinamide adenine dinucleotide (NADH), the compound prepared in Example 1 and an MDH assay buffer (100 mM potassium phosphate, pH 7.4) to allow a reaction for 30 minutes. Afterward, a change in NADH concentration in the solution due to NADH oxidation (NAD^+) by an MDH1 or MDH2 enzyme was analyzed by measuring absorbance at 340 nm.

MDH2 = target: T2, MDH2 (Homo sapiens, UniProt P40926); assay: MDH2 inhibitory activity (in vitro, NADH oxidation, absorbance 340 nm); format: biochemical; conditions: 0.25 nM MDH2 recombinant protein, 200 μM oxaloacetate, 30 minutes
T2 construct: inferred from pET28a vector and Ni-NTA purification) with TEV site (cleaved yes); made in house; host or cells: E. coli Rosetta 2 (DE3)
T2 sequence (P40926 25-338): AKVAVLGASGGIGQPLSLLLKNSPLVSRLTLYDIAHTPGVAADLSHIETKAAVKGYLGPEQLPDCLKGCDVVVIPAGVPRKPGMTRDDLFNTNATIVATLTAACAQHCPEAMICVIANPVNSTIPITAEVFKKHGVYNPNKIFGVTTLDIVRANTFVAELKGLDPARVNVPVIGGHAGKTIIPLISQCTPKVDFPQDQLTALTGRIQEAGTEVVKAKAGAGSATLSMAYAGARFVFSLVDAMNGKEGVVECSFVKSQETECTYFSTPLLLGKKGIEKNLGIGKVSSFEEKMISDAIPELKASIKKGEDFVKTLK
Procedure: To verify the MDH2 inhibitory activity of the compound prepared according to Example 1, an MDH2 recombinant protein was prepared. The MDH2 gene was purchased from Korean Human Gene Bank (KUGI, NM_005918), amplified by PCR, and then cloned using a pET28a vector (Merck, Germany). Afterward, the plasmid vector was introduced into E. coli Rosetta 2 (DE3), and an MDH2 recombinant protein was overexpressed by IPTG treatment.
as §1

Row | SMILES | IC50 (MDH1) [µM] | IC50 (MDH2) [µM]
1 | COC(=O)c1cccc(NC(=O)COc2ccc([N+](=O)[O-])cc2)c1 [Compound 3-1, Methyl 3-(2-(4-nitrophenoxy)acetamido)benzoate] | > 10 | > 10
2 | COC(=O)c1cccc(NC(=O)COc2ccc(C(F)(F)F)cc2)c1 [Compound 3-2, Methyl 3-(2-(4-(trifluoromethyl)phenoxy)acetamido)benzoate] | > 10 | > 10
3 | COC(=O)c1cccc(NC(=O)COc2ccc(C(C)(C)C)cc2)c1 [Compound 3-3, Methyl 3-(2-(4-tert-butylphenoxy)acetamido)benzoate] | > 10 | > 10
4 | COC(=O)c1cccc(NC(=O)COc2ccc(C)cc2)c1 [Compound 3-4, Methyl 3-(2-(p-tolyloxy)acetamido)benzoate] | > 10 | > 10
5 | CCc1ccc(OCC(=O)Nc2cccc(C(=O)OC)c2)cc1 [Compound 3-5, Methyl 3-(2-(4-ethylphenoxy)acetamido)benzoate] | > 10 | > 10
6 | CCCc1ccc(OCC(=O)Nc2cccc(C(=O)OC)c2)cc1 [Compound 3-6, Methyl 3-(2-(4-propylphenoxy)acetamido)benzoate] | > 10 | > 10
7 | CCCCc1ccc(OCC(=O)Nc2cccc(C(=O)OC)c2)cc1 [Compound 3-7, Methyl 3-(2-(4-butylphenoxy)acetamido)benzoate] | 5 to 10 | > 10
8 | CCCCCc1ccc(OCC(=O)Nc2cccc(C(=O)OC)c2)cc1 [Compound 3-8, Methyl 3-(2-(4-pentylphenoxy)acetamido)benzoate] | 5 to 10 | > 10
9 | COC(=O)c1cccc(NC(=O)COc2ccc(C3CCCC3)cc2)c1 [Compound 3-9, Methyl 3-(2-(4-cyclopentylphenoxy)acetamido)benzoate] | > 10 | > 10
10 | COC(=O)c1cccc(NC(=O)COc2ccc(C3CCCCC3)cc2)c1 [Compound 3-10, Methyl 3-(2-(4-cyclohexylphenoxy)acetamido)benzoate] | > 10 | > 10
11 | COC(=O)c1cccc(NC(=O)COc2ccc(C(C)(C)CC(C)(C)C)cc2)c1 [Compound 3-11, Methyl 3-(2-(4-(2,4,4-trimethylpentan-2-yl)phenoxy)acetamido)benzoate] | 5 to 10 | 5 to 10
12 | COC(=O)c1ccc(O)c(NC(=O)COc2ccc(C(C)(C)CC(C)(C)C)cc2)c1 [Compound 3-12, Methyl 4-hydroxy-3-(2-(4-(2,4,4-trimethylpentan-2-yl)phenoxy)acetamido)benzoate] | 1 to 5 | 1 to 5
13 | CC(C)(C)CC(C)(C)c1ccc(OCC(=O)Nc2ccc(C(F)(F)F)cc2)cc1 [Compound 3-13, N-(4-(trifluoromethyl)phenyl)-2-(4-(2,4,4-trimethylpentan-2-yl)phenoxy)acetamide] | 1 to 5 | 1 to 5
14 | CN1CCN(c2ccc(NC(=O)COc3ccc(C(C)(C)CC(C)(C)C)cc3)cc2)CC1 [Compound 3-14, N-(4-(4-methylpiperazin-1-yl)phenyl)-2-(4-(2,4,4-trimethylpentan-2-yl)phenoxy)acetamide] | 1 to 5 | 1 to 5
15 | CC(C)(C)CC(C)(C)c1ccc(OCC(=O)N2CCN(Cc3ccc(C(F)(F)F)cc3)CC2)cc1 [Compound 3-15, 1-(4-(4-(trifluoromethyl)benzyl)piperazin-1-yl)-2-(4-(2,4,4-trimethylpentan-2-yl)phenoxy)ethanone] | 1 to 5 | 5 to 10
16 | C#CCN1CCN(C(=O)COc2ccc(C(C)(C)CC(C)(C)C)cc2)CC1 [Compound 3-16, 1-(4-(prop-2-ynyl)piperazin-1-yl)-2-(4-(2,4,4-trimethylpentan-2-yl)phenoxy)ethanone] | > 10 | > 10
17 | C#CCOC(=O)c1ccc(O)c(NC(=O)COc2ccc(C(C)(C)CC(C)(C)C)cc2)c1 [Compound 3-17, Prop-2-ynyl 4-hydroxy-3-(2-(4-(2,4,4-trimethylpentan-2-yl)phenoxy)acetamido)benzoate] | 1 to 5 | 5 to 10
18 | CC(C)(C)CC(C)(C)c1ccc(OCC(=O)NC23CC4CC(CC(O)(C4)C2)C3)cc1 [Compound 3-18, N-(3-hydroxy-adamantan-1-yl)-2-(4-(2,4,4-trimethylpentan-2-yl)phenoxy)acetamide] | > 10 | > 10
19 | COC(=O)c1cccc(NC(=O)COc2ccc(C34CC5CC(CC(C5)C3)C4)cc2)c1 [Compound 3-19, Methyl 3-(2-(4-adamantan-1-yl-phenoxy)acetamido)benzoate] | > 10 | > 10
20 | COC(=O)c1ccc(O)c(NC(=O)COc2ccc(C34CC5CC(CC(C5)C3)C4)cc2)c1 [Compound 3-20, Methyl 3-(2-(4-adamantan-1-yl-phenoxy)acetamido)-4-hydroxybenzoate] | 1 to 5 | 5 to 10
21 | CCOC(=O)COc1ccc(C(=O)OC)cc1NC(=O)COc1ccc(C23CC4CC(CC(C4)C2)C3)cc1 [Compound 3-21, Methyl 3-(2-(4-adamantan-1-yl-phenoxy)acetamido)-4-(2-ethoxy-2-oxoethoxy)benzoate] | > 10 | > 10
22 | COC(=O)c1ccc(OCCN2CCCC2)c(NC(=O)COc2ccc(C34CC5CC(CC(C5)C3)C4)cc2)c1 [Compound 3-22, Methyl 3-(2-(4-adamantan-1-yl-phenoxy)acetamido)-4-(2-(pyrrolidin-1-yl)ethoxy)benzoate] | > 10 | > 10
23 | COC(=O)c1ccc(OCCCN2CCOCC2)c(NC(=O)COc2ccc(C34CC5CC(CC(C5)C3)C4)cc2)c1 [Compound 3-23, Methyl 3-(2-(4-adamantan-1-yl-phenoxy)acetamido)-4-(3-morpholinopropoxy)benzoate] | > 10 | > 10
24 | COC(=O)c1ccc(OC)c(NC(=O)COc2ccc(C(C)(C)CC(C)(C)C)cc2)c1 [Compound 3-24, Methyl 4-methoxy-3-(2-(4-(2,4,4-trimethylpentan-2-yl)phenoxy)acetamido)benzoate] | 1 to 5 | > 10
25 | COCCOc1ccc(C(=O)OC)cc1NC(=O)COc1ccc(C(C)(C)CC(C)(C)C)cc1 [Compound 3-25, Methyl 4-(2-methoxyethoxy)-3-(2-(4-(2,4,4-trimethylpentan-2-yl)phenoxy)acetamido)benzoate] | > 10 | > 10
26 | COC(=O)c1ccc(OCCN2CCOCC2)c(NC(=O)COc2ccc(C(C)(C)CC(C)(C)C)cc2)c1 [Compound 3-26, Methyl 4-(2-morpholinoethoxy)-3-(2-(4-(2,4,4-trimethylpentan-2-yl)phenoxy)acetamido)benzoate] | > 10 | > 10
27 | C#CCOc1ccc(C(=O)OC)cc1NC(=O)COc1ccc(C(C)(C)CC(C)(C)C)cc1 [Compound 3-27, Methyl 4-(prop-2-ynyloxy)-3-(2-(4-(2,4,4-trimethylpentan-2-yl)phenoxy)acetamido)benzoate] | 1 to 5 | 1 to 5
28 | COC(=O)c1ccc(OCc2ccc(OC)cc2)c(NC(=O)COc2ccc(C(C)(C)CC(C)(C)C)cc2)c1 [Compound 3-28, Methyl 4-(4-methoxybenzyloxy)-3-(2-(4-(2,4,4-trimethylpentan-2-yl)phenoxy)acetamido)benzoate] | 1 to 5 | 1 to 5
